Assay results: PMC5599507 (Scientific Reports, 2017)
Where two headings read alike, the source gives them in different places.

Tests used:
[1] = biological target: T1, NR1/NR2A NMDAR (Homo sapiens, UniProt Q05586+Q12879); assay: NMDAR-mediated calcium flux assay, NR1/NR2A-transduced HEK293 cells; assay type: cell-based; conditions: for EC50: MDL105,519-protected cells after washout, read-out: EC50 of activation of NMDAR-mediated calcium flux; for effect on NMDAR activity at saturating concentrations of ligand: saturating concentrations of both ligands; for potentiation of NMDAR activity at submaximal ligand concentration: submaximal (EC30) D-serine or glutamate; for ligand-induced NMDAR-mediated calcium influx after protection with the compound and washout: cells cultured 16 h with compound, washed, stimulated with glycine/glutamate; for glutamate concentration dependence of inhibitor potency: CGP070667-protected cells
T1 construct: cDNAs for the GRIN1 (NM_007327), GRIN2A (NM_000833.3), GRIN2B (NM_000834.3) and Kir2.1 (NM_000891.2) proteins were purchased from GeneCopoeia; expressed in transfected cells; host or cells: HEK293 cells (ATCC) transduced with BacMam baculovirus (pFastBac-CMV-GW-DEST); virus made in Sf9
Protocol: (§2) 10^4 cells per 384-well were infected with baculovirus in suspension, seeded into a clear bottom, poly-D-lysine treated 384-well plate (Corning) and treated with the indicated concentrations of protection compound (100 µM MDL105,519 or 5 µM CGP070667). 16 h after transduction, cell medium was replaced with calcium6-dye (Molecular Devices, R8192) in incubation buffer (HBSS pH 7.5, 20 mM HEPES, 1 mM MgCl2, 1 mM probenecid) and cells were incubated at 37 °C for 2 h. […] In the beginning of each experiment baseline fluorescence (F0) was measure for 5–30 sec. For compound treatment, 10 µl of a 4× stock of compound diluted in assay buffer was added on the FDSS (speed 20 µl/s, tip height 1.8 mm) fluorescence was measured for 5 min (interval 1) before adding 10 µl of a 5× stock of ligand diluted in assay buffer and measurement of fluorescence for 5 min (interval 2). For single addition experiments, the maximal fluorescence ratio was calculated by dividing the maximal fluorescence in interval 1 by the average baseline fluorescence (Fmax/F0). For experiments requiring two additions, the integral of the fluorescence ratio was determined by calculating the area under the curve of the fluorescent ratios in interval 2. Data was analyzed as indicated and was normalized to controls located on the same plate.

[2] = test system: NR1/NR2A-H44A/E226A; assay: NMDAR-mediated calcium flux assay, NR1/NR2A-H44A/E226A mutant in HEK293 cells; conditions: at the EC50 of D-serine
Protocol: as §2

[3] = biological target: T2, NR1/NR2B NMDAR (Homo sapiens, UniProt Q05586+Q13224); assay: NMDAR-mediated calcium flux assay, NR1/NR2B-transduced HEK293 cells; assay type: cell-based
T2 construct: cDNAs for the GRIN1 (NM_007327), GRIN2A (NM_000833.3), GRIN2B (NM_000834.3) and Kir2.1 (NM_000891.2) proteins were purchased from GeneCopoeia; expressed in transfected cells; host or cells: HEK293 cells (ATCC) transduced with BacMam baculovirus (pFastBac-CMV-GW-DEST)
Protocol: 16 h after transduction, cell medium was replaced with calcium6-dye (Molecular Devices, R8192) in incubation buffer (HBSS pH 7.5, 20 mM HEPES, 1 mM MgCl2, 1 mM probenecid) and cells were incubated at 37 °C for 2 h. Before measurement, the dye-solution was replaced with 30 ul assay buffer (HBSS pH 7.5, 20 mM HEPES, 1.8 mM CaCl2). Cells were allowed to rest for 10 min at room temperature before measuring calcium flux on a FDSS7000 plate reader (Hamamatsu) with the following settings: 1 sec measurement interval, 200 ms exposure time, 2 × 2 binning, Ex480 nm:Em540 nm, sensitivity 1–3. In the beginning of each experiment baseline fluorescence (F0) was measure for 5–30 sec. For compound treatment, 10 µl of a 4× stock of compound diluted in assay buffer was added on the FDSS (speed 20 µl/s, tip height 1.8 mm) fluorescence was measured for 5 min (interval 1) before adding 10 µl of a 5× stock of ligand diluted in assay buffer and measurement of fluorescence for 5 min (interval 2). For single addition experiments, the maximal fluorescence ratio was calculated by dividing the maximal fluorescence in interval 1 by the average baseline fluorescence (Fmax/F0). For experiments requiring two additions, the integral of the fluorescence ratio was determined by calculating the area under the curve of the fluorescent ratios in interval 2. Data was analyzed as indicated and was normalized to controls located on the same plate.

[4] = biological target: T3, NR1/NR2A-V783F (Homo sapiens, UniProt Q05586+Q12879, V783F); assay: NMDAR-mediated calcium flux assay, NR1/NR2A-V783F mutant in HEK293 cells; assay type: cell-based; conditions: MDL105,519-protected cells
T3 construct: cDNAs for the GRIN1 (NM_007327), GRIN2A (NM_000833.3), GRIN2B (NM_000834.3) and Kir2.1 (NM_000891.2) proteins were purchased from GeneCopoeia; expressed in transfected cells; host or cells: HEK293 cells transduced with BacMam baculovirus
Protocol: 16 h after transduction, cell medium was replaced with calcium6-dye (Molecular Devices, R8192) in incubation buffer (HBSS pH 7.5, 20 mM HEPES, 1 mM MgCl2, 1 mM probenecid) and cells were incubated at 37 °C for 2 h. Before measurement, the dye-solution was replaced with 30 ul assay buffer (HBSS pH 7.5, 20 mM HEPES, 1.8 mM CaCl2). Cells were allowed to rest for 10 min at room temperature before measuring calcium flux on a FDSS7000 plate reader (Hamamatsu) with the following settings: 1 sec measurement interval, 200 ms exposure time, 2 × 2 binning, Ex480 nm:Em540 nm, sensitivity 1–3. In the beginning of each experiment baseline fluorescence (F0) was measure for 5–30 sec. For compound treatment, 10 µl of a 4× stock of compound diluted in assay buffer was added on the FDSS (speed 20 µl/s, tip height 1.8 mm) fluorescence was measured for 5 min (interval 1) before adding 10 µl of a 5× stock of ligand diluted in assay buffer and measurement of fluorescence for 5 min (interval 2). For single addition experiments, the maximal fluorescence ratio was calculated by dividing the maximal fluorescence in interval 1 by the average baseline fluorescence (Fmax/F0). For experiments requiring two additions, the integral of the fluorescence ratio was determined by calculating the area under the curve of the fluorescent ratios in interval 2. […]

[5] = test system: NR1/2A-transduced HEK293 cells; assay: Cell viability (CellTiterGlo) of NR1/2A-transduced HEK293 cells, protection from excitotoxicity; assay type: cell-based, human
Protocol: (§1) Cell viability was assessed Cell Titer Glo (Promega) and measured on an Envision plate reader (PerkinElmer).

[6] = test system: HEK293 cells; assay: Cell viability (CellTiterGlo) of HEK293 cells, toxicity of the compound itself; assay type: cell-based, human; conditions: 16 h treatment
Protocol: as §1

[7] = 16 h after transduction with concurrent treatment
[8] = HEK293 cells after protection with MDL105,519, stimulation with EC80 of both ligands, mean, n > 3, n.d. = not detectable, read-out: IC50 NR2A
[9] = HEK293 cells after protection with MDL105,519, stimulation with EC80 of both ligands, mean, n > 3, n.d. = not detectable, read-out: IC50 NR2B

T2 sequence (Q13224 27-1484, other chains not shown): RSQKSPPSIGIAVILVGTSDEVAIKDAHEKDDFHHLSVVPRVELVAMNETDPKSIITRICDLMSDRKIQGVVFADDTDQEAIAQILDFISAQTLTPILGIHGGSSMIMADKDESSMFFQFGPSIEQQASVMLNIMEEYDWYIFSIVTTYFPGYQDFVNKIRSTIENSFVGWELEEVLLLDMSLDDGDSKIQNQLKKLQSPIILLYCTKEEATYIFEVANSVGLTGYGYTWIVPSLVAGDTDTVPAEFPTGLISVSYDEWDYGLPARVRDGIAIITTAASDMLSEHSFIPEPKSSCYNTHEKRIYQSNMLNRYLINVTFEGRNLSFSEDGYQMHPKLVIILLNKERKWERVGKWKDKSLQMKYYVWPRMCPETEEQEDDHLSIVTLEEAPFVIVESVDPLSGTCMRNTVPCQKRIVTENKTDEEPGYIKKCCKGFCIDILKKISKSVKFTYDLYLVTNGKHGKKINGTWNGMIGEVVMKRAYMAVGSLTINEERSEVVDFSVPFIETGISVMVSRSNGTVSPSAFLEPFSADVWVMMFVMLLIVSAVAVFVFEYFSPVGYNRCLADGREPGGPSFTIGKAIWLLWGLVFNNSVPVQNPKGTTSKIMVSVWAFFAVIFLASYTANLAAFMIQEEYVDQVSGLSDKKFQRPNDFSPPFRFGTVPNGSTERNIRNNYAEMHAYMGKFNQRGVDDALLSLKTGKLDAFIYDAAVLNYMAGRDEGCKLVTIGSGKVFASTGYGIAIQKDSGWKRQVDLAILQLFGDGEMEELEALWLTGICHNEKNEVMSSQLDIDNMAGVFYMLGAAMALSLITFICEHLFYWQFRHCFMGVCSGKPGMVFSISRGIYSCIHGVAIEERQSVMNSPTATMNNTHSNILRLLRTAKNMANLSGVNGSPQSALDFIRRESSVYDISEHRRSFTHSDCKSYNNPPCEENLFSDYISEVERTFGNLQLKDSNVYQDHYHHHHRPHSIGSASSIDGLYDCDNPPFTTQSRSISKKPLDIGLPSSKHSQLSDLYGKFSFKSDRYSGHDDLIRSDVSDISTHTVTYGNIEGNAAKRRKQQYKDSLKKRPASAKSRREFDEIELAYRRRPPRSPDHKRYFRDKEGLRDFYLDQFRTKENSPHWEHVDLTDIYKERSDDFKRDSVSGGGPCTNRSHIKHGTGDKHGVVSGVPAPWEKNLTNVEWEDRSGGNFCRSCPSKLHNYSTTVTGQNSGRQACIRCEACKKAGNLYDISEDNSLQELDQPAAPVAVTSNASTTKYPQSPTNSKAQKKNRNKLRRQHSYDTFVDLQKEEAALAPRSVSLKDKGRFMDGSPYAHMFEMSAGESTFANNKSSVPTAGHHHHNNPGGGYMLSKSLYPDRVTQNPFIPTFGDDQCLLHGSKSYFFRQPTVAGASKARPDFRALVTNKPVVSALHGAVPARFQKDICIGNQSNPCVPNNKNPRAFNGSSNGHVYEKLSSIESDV
T1 sequence (Q12879 23-1464, other chains not shown): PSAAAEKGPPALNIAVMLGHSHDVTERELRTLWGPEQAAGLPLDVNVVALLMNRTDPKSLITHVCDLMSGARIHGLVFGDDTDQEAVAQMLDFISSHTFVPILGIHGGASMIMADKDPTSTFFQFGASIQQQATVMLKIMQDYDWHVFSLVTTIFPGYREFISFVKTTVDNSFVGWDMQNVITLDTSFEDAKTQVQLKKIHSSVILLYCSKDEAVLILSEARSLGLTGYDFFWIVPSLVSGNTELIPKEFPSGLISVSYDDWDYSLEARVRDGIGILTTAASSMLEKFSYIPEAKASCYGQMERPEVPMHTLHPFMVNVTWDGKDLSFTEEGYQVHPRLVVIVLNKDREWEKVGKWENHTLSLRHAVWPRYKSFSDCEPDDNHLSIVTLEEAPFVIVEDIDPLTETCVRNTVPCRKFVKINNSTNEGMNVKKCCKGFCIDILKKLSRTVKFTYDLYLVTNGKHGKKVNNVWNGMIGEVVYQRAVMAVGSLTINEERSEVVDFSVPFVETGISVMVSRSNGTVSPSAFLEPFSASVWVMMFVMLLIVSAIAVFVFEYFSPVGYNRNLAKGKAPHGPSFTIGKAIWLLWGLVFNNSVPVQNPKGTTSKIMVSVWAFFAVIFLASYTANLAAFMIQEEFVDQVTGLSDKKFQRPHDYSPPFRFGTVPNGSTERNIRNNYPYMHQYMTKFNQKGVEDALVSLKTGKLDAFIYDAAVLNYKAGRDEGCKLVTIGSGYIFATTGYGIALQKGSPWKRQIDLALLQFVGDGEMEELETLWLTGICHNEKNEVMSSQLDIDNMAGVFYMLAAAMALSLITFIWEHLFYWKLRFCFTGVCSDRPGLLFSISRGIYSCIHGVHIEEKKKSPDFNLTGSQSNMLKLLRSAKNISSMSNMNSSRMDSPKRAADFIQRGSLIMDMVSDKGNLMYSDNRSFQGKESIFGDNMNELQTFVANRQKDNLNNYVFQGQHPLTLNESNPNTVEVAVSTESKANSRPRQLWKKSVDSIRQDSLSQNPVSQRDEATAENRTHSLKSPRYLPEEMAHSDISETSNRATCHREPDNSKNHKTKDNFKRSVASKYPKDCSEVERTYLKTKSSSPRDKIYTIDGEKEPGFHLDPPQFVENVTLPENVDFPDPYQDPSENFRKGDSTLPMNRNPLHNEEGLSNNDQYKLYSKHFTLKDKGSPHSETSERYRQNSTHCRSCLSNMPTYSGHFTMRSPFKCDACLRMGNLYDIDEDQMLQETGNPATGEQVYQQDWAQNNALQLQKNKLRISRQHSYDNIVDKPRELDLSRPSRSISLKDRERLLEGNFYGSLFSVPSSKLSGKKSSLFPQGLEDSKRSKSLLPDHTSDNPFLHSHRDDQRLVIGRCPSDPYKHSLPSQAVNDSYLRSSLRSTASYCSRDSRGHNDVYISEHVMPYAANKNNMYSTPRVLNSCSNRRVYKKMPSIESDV
T3 sequence (Q12879 23-1464 V783F, other chains not shown): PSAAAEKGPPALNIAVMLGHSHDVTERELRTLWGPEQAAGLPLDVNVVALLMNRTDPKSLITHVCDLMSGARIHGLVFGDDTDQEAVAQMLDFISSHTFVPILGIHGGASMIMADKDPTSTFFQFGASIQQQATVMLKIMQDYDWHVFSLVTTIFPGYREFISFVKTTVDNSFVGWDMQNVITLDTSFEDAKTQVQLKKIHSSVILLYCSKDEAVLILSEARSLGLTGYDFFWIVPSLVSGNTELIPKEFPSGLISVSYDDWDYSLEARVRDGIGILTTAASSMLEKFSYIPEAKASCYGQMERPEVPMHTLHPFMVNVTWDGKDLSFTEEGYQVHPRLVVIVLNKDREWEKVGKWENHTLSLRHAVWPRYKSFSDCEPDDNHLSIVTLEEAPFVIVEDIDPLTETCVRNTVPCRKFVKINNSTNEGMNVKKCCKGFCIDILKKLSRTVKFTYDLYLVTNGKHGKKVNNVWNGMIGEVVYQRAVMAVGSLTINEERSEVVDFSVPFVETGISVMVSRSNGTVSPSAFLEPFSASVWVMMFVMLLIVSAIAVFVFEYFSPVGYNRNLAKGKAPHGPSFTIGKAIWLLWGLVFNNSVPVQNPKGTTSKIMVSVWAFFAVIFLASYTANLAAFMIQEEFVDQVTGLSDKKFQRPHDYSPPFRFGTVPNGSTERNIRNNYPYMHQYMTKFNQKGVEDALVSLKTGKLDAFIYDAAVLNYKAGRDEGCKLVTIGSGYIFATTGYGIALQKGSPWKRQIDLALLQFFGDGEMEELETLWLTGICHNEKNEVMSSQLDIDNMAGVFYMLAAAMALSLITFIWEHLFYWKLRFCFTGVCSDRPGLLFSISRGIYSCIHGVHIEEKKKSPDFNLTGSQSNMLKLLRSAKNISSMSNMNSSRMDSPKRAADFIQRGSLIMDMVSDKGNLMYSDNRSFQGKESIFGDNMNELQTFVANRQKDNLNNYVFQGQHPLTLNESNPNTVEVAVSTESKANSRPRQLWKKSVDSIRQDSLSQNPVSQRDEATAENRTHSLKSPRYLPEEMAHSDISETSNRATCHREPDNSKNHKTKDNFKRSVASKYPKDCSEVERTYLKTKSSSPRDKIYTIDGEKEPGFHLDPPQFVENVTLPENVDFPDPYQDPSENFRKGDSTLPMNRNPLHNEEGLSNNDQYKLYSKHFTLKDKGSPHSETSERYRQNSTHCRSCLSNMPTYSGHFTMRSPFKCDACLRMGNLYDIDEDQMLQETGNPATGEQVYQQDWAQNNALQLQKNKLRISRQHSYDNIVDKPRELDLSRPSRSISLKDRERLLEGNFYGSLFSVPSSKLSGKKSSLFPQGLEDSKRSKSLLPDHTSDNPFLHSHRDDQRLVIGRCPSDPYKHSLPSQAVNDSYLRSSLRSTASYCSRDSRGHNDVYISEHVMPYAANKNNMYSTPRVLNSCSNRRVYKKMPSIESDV

N[C@H](CO)C(=O)O [D-serine]
EC50 [1]: ~9000 nM

O=C(O)CN(CCN(CC(=O)O)CC(=O)O)CC(=O)O [EDTA]
sensitivity of the double mutant to activation ([2]; compared to wildtype NR2A): less sensitive

CCN(Cc1cc(=O)n2c3c(sc2n1)CCC3)c1ccc(F)cc1 [GNE-8324]
effect on NMDAR activity at saturating concentrations of ligand [1]: enhanced NMDAR activity
potentiation of NMDAR activity at submaximal ligand concentration [1]: concentration-dependent potentiation
effect on NR1/2B-mediated calcium flux [3]: no effect
sensitivity of NR1/2A-V783F to the compound [4]: complete loss of sensitivity

CNC1(c2ccccc2Cl)CCCCC1=O (stereo not shown) [Ketamine]
IC50 [1]: 23000 nM
ligand-induced NMDAR-mediated calcium influx after protection with the compound and washout [1]: did not observe significant ligand-induced NMDAR-mediated calcium influx
IC50 [3]: 12100 nM
protection from NMDAR-mediated excitotoxicity (cell viability) [5, 7]: could be rescued
toxic effect on HEK293 cells [6]: dose-dependent toxic effect

O=c1[nH]c2cc(Cl)ccc2c(O)c1-c1cccc(Oc2ccccc2)c1 [L701,324]
IC50 [1, 8]: 1450 nM
IC50 [3, 9]: 1910 nM

N[C@@H](CO)C(=O)O [L-serine]
right shift in potency as compared to D-serine ([1]; MDL105,519-protected cells, saturating glutamate): ~ 200 fold

O=C(O)C(=Cc1c(C(=O)O)[nH]c2cc(Cl)cc(Cl)c12)c1ccccc1 [MDL105,519]
glutamate concentration dependence of inhibitor potency [1]: only minor effects
IC50 [1, 8]: 620 nM
shift of inhibitor dose response curve, EC100 vs EC20 of D-serine ([1]; MDL105,519-protected cells): right shift
ligand-induced NMDAR-mediated calcium influx after protection with the compound and washout [1]: enabled the largest dynamic range of NMDAR-activity
IC50 [3, 9]: 1650 nM
protection from NMDAR-mediated excitotoxicity (cell viability) [5, 7]: dose-dependent rescue of cell viability
cell viability compared to non-transduced cells ([5]; overnight (16 h) treatment of NR1/2A-transduced cells, screen of 120 compounds): > 70%

C[C@]12N[C@H](Cc3ccccc31)c1ccccc12 [MK801]
glutamate concentration dependence of inhibitor potency [1]: only minor effects
change of signal on NMDAR block in the absence of ligand (basal activity) ([1]; after washout of MDL105,519, no ligand): only a weak decrease of signal
ligand-induced NMDAR-mediated calcium influx after protection with the compound and washout [1]: did not observe significant ligand-induced NMDAR-mediated calcium influx
IC50 [3, 9]: 150 nM
protection from NMDAR-mediated excitotoxicity (cell viability) [5, 7]: could be rescued

[Cl-].[Cl-].[Mg+2] [MgCl2, magnesium chloride]
sensitivity of NR1/NR2A to inhibition with increasing Kir2.1 baculovirus titer ([1]; co-transduction with Kir2.1 (KCNJ2), MDL105,519-protected cells): increased sensitivity
concentration giving partial rescue of cell viability [5, 7]: > 10 mM
protection from NMDAR-mediated excitotoxicity (cell viability) [5, 7]: partial rescue

C[C@H](NC(c1cccc2[nH]c(=O)c(=O)[nH]c12)P(=O)(O)O)c1ccc(Br)cc1 (stereo partly shown) [NVP-AAM077]
IC50 [1, 8]: 2460 nM
IC50 [3, 9]: 11900 nM

C[C@@H](CN1CCC(Cc2ccccc2)CC1)[C@@H](O)c1ccc(O)cc1 [RO25-6981]
IC50 [3, 9]: 100 nM

NCC(=O)O [glycine]
sensitivity of NMDAR-mediated calcium flux to ligand ([1]; CGP070667-protected cells after washout): insensitivity
EC50 [1]: ~12000 nM

[Zn+2] [zinc]
IC50 ([2]; read-out: IC50 for zinc, NR2A-H44A/E226A double mutant, MDL105,519-protected cells): > 10000 nM
IC50 ([1]; MDL105,519-protected cells, at the EC50 of D-serine, read-out: IC50 for zinc, wildtype receptor): ~100 nM

pregnenolone sulfate [PS]
effect on NMDAR activity at saturating concentrations of ligand [1]: supramaximal activation
potentiation of NMDAR activity at submaximal ligand concentration [1]: enhanced NMDAR activity
effect on NMDAR activity at saturating concentrations of ligand ([3]; saturating concentrations of both ligands): supramaximal activation
potentiation of NMDAR activity at submaximal ligand concentration ([3]; submaximal (EC30) D-serine or glutamate): enhanced NMDAR activity
